pIC50: −log10 of the molar value.
Key:
[1] = target: Menin/MLL-4-43 peptide interaction (Homo sapiens (Human), UniProt O00255); experiment: Menin-MLL interaction inhibitory activity assay (fluorescence polarization competition); assay type: binding; conditions: FITC-MLL4-43-peptide, Menin recombinant protein
Procedure: Test Example 1: Menin-MLL Interaction Inhibitory Activity Assay
The inhibition of Menin/MLL-4-43 peptide interaction by small molecule inhibitors was quantitatively detected by fluorescence polarization competition assay. The experiment was performed in a 384-well plate (Corning, Cat #3575) using a reaction buffer consisting of 50 mM Tris, pH 7.5, 50 mM NaCl, and 1 mM DTT. A 40 μL reaction system included 10 μL of 8 nM Menin recombinant protein and 10 μL of the test compound at different concentrations. The compound was pre-incubated with Menin protein for 15 min, and then 20 μL of 10 nM FITC-MLL4-43-peptide was added. After incubation on a shaker at 25° C. for 60 min, the fluorescence polarization signal (FP 485 520 520) was read using BMG PHERAStar detection. The experimental data was analyzed and processed by GraphPad Prism 6 software to obtain the IC50 value. The control compound 1 was prepared by referring to the method of Example 64 in WO2017214367.

[2] = test system: MV4-11; experiment: Cell proliferation inhibition (CellTiter-Glo), MV4-11; assay type: cell-based; conditions: MV4-11 cells
Procedure: (§1) Test Example 2: Test of the Inhibitory Ability of Menin-MLL Interaction Inhibitors on Cell Proliferation
(§2) The inhibitory ability of the compounds of the present disclosure on the proliferation of tumor cell lines (including cell lines containing MLL fusion protein such as MV4-11, MOLM-13, THP-1 and NOMO-1, control cell lines without MLL fusion protein such as HL-60, K562 and MOLM-16, and cell lines containing NPM1 mutation such as OCI-AML3) was evaluated by using the cell viability analysis method. The cells were plated in 96-well plates at a certain concentration (e.g., 5,000-20,000 cells/well), and then an equal volume of culture medium containing 2 times the final concentration of the test compound (the final concentration ranging 10 from 1 nM to 10 μM) was added. The plates were placed in an incubator and cultured at 37° C. and 5% CO2 for 72-168 h. Before the test, an equal volume of CellTiter-Glo® Luminescent reagent was added, and the plate was incubated at room temperature for 10 min before detection using an ELISA reader (BMG LABTECH). The data were analyzed using GraphPad Prism software to obtain the IC50 value and compound fitting curve. The control compound 1 was prepared by referring to the method of Example 64 in WO2017214367.

[3] = Stability in mouse liver microsomes; assay type: in vitro ADME; conditions: 1.00 μM compound, NADPH; for half-life at 1 μM: liver microsomes, pH 7.4, 0.5 mg/mL microsomal protein, read-out: Half life T1/2, mouse liver microsomes; for Half life T1/2, mouse liver microsomes: 0.5 mg/mL microsomal protein
Procedure: (§3) Test Example 3: Test of Stability of Compounds in Liver Microsome
(§4) Test purpose: To determine the stability of some of the compounds of the present disclosure in mouse, dog and human liver microsomes by LC-MS/MS method.
(§5) Test materials: The test drugs were in-house prepared example compounds of the present disclosure; the positive reference compound SNDX-5613 was prepared by the method of Example 253 in patent WO2017214367; the control compound 1 was prepared by the method of Example 64 in WO2017214367; liver microsomes were purchased from CORNING.
(§6) The total volume of each incubation system was approximately 45 μL, and the medium was 100 mM phosphate buffer (PBS, pH 7.4), including liver microsomal protein at a final concentration of 0.5 mg/mL, 1.00 μM compound and 2.00 mM NADPH, and the organic phase content was <1%. Incubation was performed in a 37° C. incubator, and 135 μL of ice-cold acetonitrile was added after 0, 5, 15, 30 and 60 min of reaction to terminate the reaction. The positive control group was incubated with 1.00 μM Ketanserin, 0.5 mg/mL liver microsomal protein and 2.00 mM NADPH in a 37° C. incubator for 0, 5, 15, 30 and 60 min respectively, and then 135 μL of ice-cold acetonitrile was added to terminate the reaction. The 96-well plates were shaken at 600 rpm for 10 min and then centrifuged at 4700 rpm at 4° C. for 15 min. 80 μL of supernatant was mixed with 320 μL of pure water, and the remaining amount of the compound was detected by LC-MS/MS method. The in vitro half life (T½) and intrinsic clearance (CLint) were calculated according to the following formula:
(§7) Intrinsic clearance (Clint)=(0.693/T1/2)×(1/liver microsome concentration)×conversion factor. k is the linear regression slope of the remaining percentage of the ln compound-incubation time.

[4] = Stability in human liver microsomes; assay type: in vitro ADME; conditions: 0.5 mg/mL microsomal protein, 1.00 μM compound, NADPH; for half-life at 1 μM: human, liver microsomes, pH 7.4, Human, read-out: Half life T1/2, human liver microsomes
Procedure: as §3, §4, §5, §6, §7

[5] = test system: MOLM-13; experiment: Cell proliferation inhibition (CellTiter-Glo), MOLM-13; assay type: cell-based; conditions: MOLM-13 cells
Procedure: as §1, §2

[6] = test system: OCI-AML3; experiment: Cell proliferation inhibition (CellTiter-Glo), OCI-AML3 (NPM1 mutation); assay type: cell-based; conditions: OCI-AML3 cells
Procedure: as §1, §2

[7] = Stability in dog liver microsomes; assay type: in vitro ADME; conditions: 0.5 mg/mL microsomal protein, 1.00 μM compound, NADPH; for half-life at 1 μM: dog, liver microsomes, pH 7.4, Dog, read-out: Half life T1/2, dog liver microsomes
Procedure: as §3, §4, §5, §6, §7

[8] = Pharmacokinetics test in mouse; assay type: in vivo, ICR mice; conditions: mice, p.o. 10 mg/kg; for AUC(0-t) / half-life / Cmax: male, ICR, mouse, plasma, po, 10 mg/kg; for Cmax: read-out: Cmax; for F, %: 1 mg/kg for intravenous injection
Description: Test Example 4. In Vivo Pharmacokinetic Study
Test purpose: To determine the pharmacokinetic properties of some of the example compounds of the present disclosure in mice, rats and dogs after single intravenous injection (i.v.) and oral gavage (i.g.) administration by LC-MS/MS method.
Research methods: An appropriate amount of compound was weighed and prepared into a transparent clear solution of a certain concentration using 0.9% sodium chloride injection and 1.5 equivalents of 1M HCl aqueous solution based on the molar number of the compound. After SPF male ICR mice, SPF male SD rats, and male beagle dogs were fasted overnight, the test compound solution was given by intravenous injection and oral gavage at the corresponding dose. Anticoagulated whole blood of the test animals was collected at 5 min, 15 min, 30 min, 1 h, 2 h, 4 h, 8 h, and 24 h after administration, and plasma was separated. Plasma samples at each time point were detected by LC-MS/MS, and the plasma concentration of the compound was determined by the standard curve correction method. Phoenix WinNonlin 5.2 non-compartmental model was used to calculate the pharmacokinetic parameters of terminal elimination half-life (t½), blood peak concentration (Cmax), area under the concentration-time curve (AUC), clearance (CL), and bioavailability (F %), which was directly obtained from the serum concentration results. Blood drug concentration and pharmacokinetic parameters are expressed as mean±standard deviation (X±SD). The specific test protocols for each species are as follows.
Pharmacokinetics Test in Mouse
Test animals: SPF male ICR mice, weighing 25-30 g, 12 mice/compound, purchased from Chengdu Dossy Experimental Animal Co., Ltd.
Test design: On the day of the test, ICR mice were randomly divided into groups according to body weight, fasted but with free water for 12-14 h one day before administration, and fed 2 h after administration.
Preparation of test compound solution: The concentration of the test compound for oral gavage was 1 mg/mL. An appropriate amount of compound was weighed and prepared into a 1 mg/mL transparent clear solution using 0.9% sodium chloride injection and 1.5 equivalents of 1M HCl aqueous solution. The concentration of the test compound for intravenous injection was 0.2 mg/mL. The 1 mg/mL transparent clear solution was diluted to a concentration of 0.2 mg/mL using 0.9% sodium chloride injection. The volume of 1 M HCl solution added was calculated as: volume of 1 M HCl solution added […]=weighed amount of compound (mg)/molecular weight×1.5×1000. The amount added during preparation must not exceed the calculated value.
The test substance was administered as follows: intravenous injection: 1 mg/kg of dose, 5 mL/kg of volume, 6 mice; oral gavage: 10 mg/kg of dose, 10 mL/kg of volume, 6 mice.
Sample collection: Blood (40-50 μl) was collected in anticoagulant tubes sprayed with EDTA-K2 through the orbital venous plexus at 5 min, 15 min, 30 min, 1 h, 2 h, 4 h, 8 h, and 24 h after administration, and centrifuged at 10,000 rpm for 20 min within 1 h (the blood was saved on wet ice before and after centrifugation). The supernatant, which was plasma, was collected and frozen in a refrigerator at −20° C. or below for LC-MS/MS analysis of Full PK of male ICR mice (2 mice per group, 4 blood collection time points per mouse, crossover).

Chain of Menin/MLL-4-43 peptide interaction (O00255 whole entry, species assumed): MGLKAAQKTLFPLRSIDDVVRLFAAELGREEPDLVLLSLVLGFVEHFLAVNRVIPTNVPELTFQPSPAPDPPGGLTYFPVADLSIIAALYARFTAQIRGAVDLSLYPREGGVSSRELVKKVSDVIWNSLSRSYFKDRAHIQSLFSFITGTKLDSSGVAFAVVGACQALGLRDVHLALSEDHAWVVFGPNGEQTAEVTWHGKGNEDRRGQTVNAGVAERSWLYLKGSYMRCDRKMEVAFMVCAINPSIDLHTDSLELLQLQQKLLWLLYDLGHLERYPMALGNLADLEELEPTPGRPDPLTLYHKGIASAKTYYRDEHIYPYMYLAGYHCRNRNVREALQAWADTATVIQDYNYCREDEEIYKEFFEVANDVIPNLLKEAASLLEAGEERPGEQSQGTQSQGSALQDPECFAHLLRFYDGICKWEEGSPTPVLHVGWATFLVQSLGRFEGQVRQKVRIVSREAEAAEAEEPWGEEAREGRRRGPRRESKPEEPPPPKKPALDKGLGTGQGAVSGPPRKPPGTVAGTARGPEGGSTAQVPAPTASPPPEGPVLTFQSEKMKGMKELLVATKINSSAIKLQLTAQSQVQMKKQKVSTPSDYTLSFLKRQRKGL

pIC50 [1] | GI50 ([2]; Homo sapiens, MV4-11, 72 h) [nM] | half-life at 1 μM [3] [h] | half-life at 1 μM [4] [h] | GI50 ([5]; Homo sapiens, MOLM-13, 168 h) [nM] | GI50 ([6]; Homo sapiens, OCI-AML-3, 168 h) [nM] | half-life at 1 μM [7] [h] | GI50 ([2]; 72 h) [nM] | GI50 ([5]; 168 h) [nM] | GI50 ([6]; 168 h) [nM] | Half life T1/2, mouse liver microsomes [3] [h] | Half life T1/2, human liver microsomes [4] [h] | Half life T1/2, dog liver microsomes ([7]; Dog) [h] | AUC(0-t) [8] [ng·h/mL] | half-life [8] [h] | Cmax [8] [ng/mL] | F, % [8] [%] | SMILES
7.91 |  | 1.17 | 0.582 | 133 | 92 | 0.59 | 27.8 |  |  |  |  |  |  |  |  |  | [2H]C([2H])([2H])C1C[C@]2(CC[C@@H](CN3CCC4(CC3)CN(c3ncnnc3Oc3ccc(F)cc3C(=O)N(C(C)C)C(C)C)C4)CC2)NC1=O (single isomer, unassigned) [Example 43-1]
7.45 | 100 | > 2 | 1.31 | 329 | 140 | > 2 |  |  |  |  |  |  |  |  |  |  | CCN(C(=O)c1cc(F)ccc1Oc1nncnc1N1CC2(CCN(CC3CCC4(CC3)CN(C)C(=O)N4)CC2)C1)C(C)C (single isomer, unassigned) [Example 46-1]
7.69 | 118 | > 2 | 0.78 |  |  | 1.28 |  |  |  |  |  |  |  |  |  |  | CC(C)N(C(=O)c1cc(F)ccc1Oc1nncnc1N1CC2(CCN(CC3CCC4(CC3)CN(C)C(=O)N4)CC2)C1)C(C)C (single isomer, unassigned) [Example 47-1]

More lines, now with the values behind:

SMILES | pIC50 [1] | GI50 ([2]; Homo sapiens, MV4-11, 72 h) [nM] | half-life at 1 μM [3] [h] | half-life at 1 μM [4] [h] | GI50 ([5]; Homo sapiens, MOLM-13, 168 h) [nM] | GI50 ([6]; Homo sapiens, OCI-AML-3, 168 h) [nM] | half-life at 1 μM [7] [h] | GI50 ([2]; 72 h) [nM] | GI50 ([5]; 168 h) [nM] | GI50 ([6]; 168 h) [nM] | Half life T1/2, mouse liver microsomes [3] [h] | Half life T1/2, human liver microsomes [4] [h] | Half life T1/2, dog liver microsomes ([7]; Dog) [h] | AUC(0-t) [8] [ng·h/mL] | half-life [8] [h] | Cmax [8] [ng/mL] | F, % [8] [%]
CCN(C(=O)c1cc(F)ccc1Oc1nncnc1N1CC2(CCN(CC3CC4CCC3CC43CCC(=O)N3)CC2)C1)C(C)C (single isomer, unassigned) [Example 14-1a] | 7.31 | 86.1 | > 2 | 0.955 |  |  |  |  |  |  |  |  |  |  |  |  | 
[2H]C([2H])([2H])C1C[C@]2(CC[C@@H](CN3CCC4(CC3)CN(c3ncnnc3Oc3ccc(F)cc3C(=O)N(CC)C(C)C)C4)CC2)NC1=O (single isomer, unassigned) [Example 42-1] | 7.82 | 45.4 | > 2 | 0.757 | 216 | 111 | 1.33 |  |  |  |  |  |  |  |  |  | 
CCN(C(=O)c1cc(F)ccc1Oc1nncnc1N1CC2(CCN(C[C@H]3CC[C@]4(CC3)CC(C(C)(C)O)C(=O)N4)CC2)C1)C(C)C (single isomer, unassigned) [Example 58-1a] | 8.27 | 17.7 | > 2 | 0.396 | 54.4 | 22.9 | 1.16 |  |  |  |  |  |  |  |  |  | 
CCN(C(=O)c1cc(F)ccc1Oc1nncnc1N1CC2(CCN(C[C@H]3CC[C@]4(CC3)CC(C(C)(C)O)C(=O)N4)CC2)C1)C(C)C (single isomer, unassigned) [Example 58-1b] | 8.23 |  |  |  |  |  |  | 18 | 56.9 | 30.2 | >2 | 0.593 | 1.14 |  |  |  | 
CC(C)c1ncncc1-c1cc(F)ccc1Oc1cncnc1N1CC2(CN(CC3CCC4(CC3)OCCO4)C2)C1 [Control compound 1, reference compound] | 6.81 |  |  |  |  |  |  | 82.7 |  |  | 0.0625 | 0.0795 |  |  |  |  | 
COCC1(COC)C[C@]2(CC[C@@H](CN3CCC4(CC3)CN(c3ncncc3Oc3ccc(F)cc3C(=O)N(C(C)C)C(C)C)C4)CC2)NC1=O [Example 18] | 8.20 | 12.2 |  |  | 12.8 | 21.2 |  |  |  |  |  |  |  | 4040 | 1.34 | 1960 | 75
CC(C)N(C(=O)c1cc(F)ccc1Oc1cncnc1N1CC2(CCN(C[C@H]3CC[C@]4(CC3)CC(C)(C)C(=O)N4)CC2)C1)C1CC1 [Example 23] | 7.92 | 20 | 0.808 | 0.605 | 157 | 77.9 |  |  |  |  |  |  |  | 2650 | 2.52 | 1510 | 119
CC(C)N(C(=O)c1cc(F)ccc1Oc1nncnc1N1CC2(CCN(CC3CCC4(CC3)COC(=O)N4)CC2)C1)C(C)C (centres unmarked) [Example 49] | 7.38 | 51.3 |  |  | 110 | 108 |  |  |  |  |  |  |  | 2320 | 1.1 | 1350 | 77

— US20250074910A1, “MENIN INHIBITOR AND USE THEREOF” (HITGEN INC., priority 2021, published 2025)
